# Source: the NIST ThermoML archive (doi:10.1016/j.fluid.2015.03.036)
# Numbers after ± are expanded uncertainties.
# Assays:
# [1] = Solid-liquid equilibrium temperature; details: 100 kPa; Crystal; DTA
# [2] = Molar enthalpy of transition or fusion; details: Crystal; DSC
smiles,measurement,setting,value
O=P(Nc1ccccc1)(Oc1ccccc1)Oc1ccccc1 [diphenyl anilinophosphonate],Solid-liquid equilibrium temperature,[1],406.91 ± 0.32 K
same,Molar enthalpy of transition or fusion,[2],0.0171 ± 0.0406 kcal/mol
